Structures are written as SMILES.

Consider 2 molecules from patent publication US20040053962A1, “Methods for inhibiting proliferation and inducing apoptosis in cancer cells” (priority 2003, published 2004).

What all share (type): cell-based
In assay [1] the test system is MiaPaCa-2 pancreatic cancer cell line. The assay can be described thus: [3H]-thymidine incorporation (DNA synthesis), MiaPaCa-2. Set-up: effect on proliferation (thymidine incorporation): dose or concentration left out as unconfirmed. Here is the method: (§1) Cell culture. The following pancreatic cancer cell lines were used: MiaPaCa-2 and PANC-1 (poorly-differentiated); Capan-1 and Capan-2 (well-differentiated); and HPAF and AsPC-1 (pleomorphic). These were purchased from American Type Culture Collection (Rockville, Md.). PANC-1 and MiaPaCa-2 were grown in DMEM media; HPAF and AsPC-1 were grown in MEM media; and Capan-1 and Capan-2 were grown in-McCoy's media. Media were supplemented with 10% FBS, and the cells were grown as monolayers in a humidified atmosphere of […] and 5% CO2 at 37° C. The cells were regularly seeded into 75 cm^2 flask with media changed every other day. For experiments, cells were grown to 80% confluence, digested with trypsin-EDTA, and plated either in 12 or 24-well plates at a concentration of 50,000/ml, as appropriate.
(§2) DNA synthesis by [^3H]-Thymidine incorporation. Cells were plated in 12 or 24-well plates. After reaching 70% confluence, they were incubated in serum-free media for 24 hours, which was then replaced with fresh serum-free media with or without the appropriate concentration of leukotriene B4 receptor antagonist LY293111 (62.5-1000 nM), LTB4 (100-400 nM), or both. After the appropriate period of culture, cellular DNA synthesis was assayed by adding 0.5 μCi/well of [^3H]-methyl-thymidine and incubating for another 2 hours. Then, the cells were washed twice with PBS, fixed with 10% trichloroacetic acid (“TCA”) for 30 minutes, and solubilized by adding 0.4 M NaOH to each well. Radioactivity, indicating incorporation of ^3H-thymidine into DNA, was measured by adding a scintillation cocktail and counting on a scintillation counter (LKB RackBeta, Wallac, Turku, Finland)
(In general: Dividing cells build labelled thymidine or BrdU into new DNA.)

Assay [2] concerns HPAF pancreatic cancer cell line. The assay is described as follows: [3H]-thymidine incorporation (DNA synthesis), HPAF. On the set-up: effect on proliferation (thymidine incorporation): dose or concentration left out as unconfirmed. The procedure:
as §1, §2

Assay [3] relates to Bcl-2 in MCF-7 breast cancer cells. The assay can be described thus: Bcl-2 expression by western blotting. The settings on record: MCF-7, LTB4 100 nM. On the technique in general: Immunoblotting shows a protein as a band on a membrane.

`CCCc1c(OCCCCc2nnn[nH]2)ccc(C(C)=O)c1O` [LY171883, 1-(2-hydroxy-3-propyl-4-(4-(1H-tetrazol-5-yl)butoxy)phenyl)ethanone, reference compound]: the “effect on proliferation (thymidine incorporation)” value in assay [1] (MiaPaCa-2, 48 hours, likely a toxic effect, P=0.2316) is reported as “only affected proliferation at the highest concentration”; in assay [2] (HPAF, 48 hours, likely a toxic effect, P=0.2217), “only affected proliferation at the highest concentration”.
For the molecule `CCCCC/C=C\C[C@@H](O)/C=C/C=C/C=C\[C@@H](O)CCCC(=O)O` [LTB4, Leukotriene B4, reference compound], the “increase of proliferation compared with control” value stood at 25% in assay [1] (MiaPaCa-2 (FIG. 6A), 100 nM LTB4, 24 hours) and 25% in assay [2] (HPAF (FIG. 6B), 100 nM LTB4, 24 hours). The “thymidine incorporation compared with control” value in assay [1] (MiaPaCa-2, LTB4 100 nM for 72 hours) was “more than doubled”; in assay [2] (HPAF, LTB4 100 nM for 72 hours), “more than doubled”. In addition, the “effect on proliferation (thymidine incorporation)” value is “stimulated the proliferation” in assay [1] (MiaPaCa-2, concentration and time-dependent, P<0.0001); “stimulated the proliferation” in assay [2] (HPAF, concentration and time-dependent, P<0.0001). In addition, the “Bcl-2 expression (western blot)” value in assay [3] was “increase expression”.
